Source: US8722736B2, “Multi-dose concentrate esmolol with benzyl alcohol” (Baxter International Inc., priority 2007, dated 2014)

Assay: pH dependence of esmolol degradation
Format: physicochemical
Excerpt: The concentrate of present invention can also include a pharmaceutically acceptable buffer to aid in maintaining the pH in a range of from about 3.5 to about 7.0. Preferably, the pH is maintained between about 4.5 and about 5.5, more preferably between 4.9 and 5.1. […] Suitable buffers are those buffers that provide sufficient buffering capacity at the desired pH range and are pharmaceutically acceptable for injection into a patient. Examples of buffers useful in the present invention include, but are not limited to, acetate, glutamate, citrate, tartrate, benzoate, lactate, gluconate, phosphate and glycine and conjugate acids thereof. The concentration of the buffer can be from about 0.005 to about 2 M. In a preferred embodiment, the buffering agent comprises a combination of sodium acetate and glacial acetic acid. A preferred combination of buffers can include sodium acetate at from about 0.005 to about 0.3 M and glacial acetic acid at from about 0.05 to about 0.3 M.

- pH at which esmolol is most stable: about 5.0
Compound: COC(=O)CCc1ccc(OCC(O)CNC(C)C)cc1.Cl (stereo not shown) [esmolol, methyl3-[4-[2-hydroxy-3-(isopropylamino)propoxy]phenyl]propionate hydrochloride]
